Reference: patent US6534522B2, “Subtype-selective NMDA receptor ligands and the use thereof” (Warner-Lambert Company, priority 1995, dated 2003)
Structures can show the parent of a compound that is named as a salt. Where two headings read alike, the source gives them in different places.

Key:
NR1A/2B NMDA receptor = NR1A/2B NMDA receptor (Rattus norvegicus, UniProt P35439+Q00960); assay: Xenopus oocyte expression system, two-electrode voltage clamp, NR1A/2B; type: cell-based
Text: (§1) Electrophysiological assays may be utilized to characterize the actions of potential subtype-selective ligands at NMDA receptors expressed in Xenopus oocytes. The ligand may be assayed at the different subunit combinations of cloned rat NMDA receptors corresponding to the four putative NMDA receptor subtypes (Moriyoshi et al., Nature (Lond.) 354:31-37 (1991); Monyer et al., Science (Washington, D.C.) 256:1217-1221 (1992); Kutsuwada et al., Nature (Lond.) 358:36-41 (1992); Sugihara et al., Biochem. Biophys. Res. Comm. 185:826-832 (1992)).
(§2) Using fixed saturating concentrations of agonists (glutamate 100 μM, glycine 1-10 μM depending on subunit combination), the inhibitory potency of a putative subtype-selective ligand may be assayed at the NMDA receptors assembled from NR1A/2A, NR1A/2B, NR1A/2C and NR1A/2D subunit combinations.
(§3) The Xenopus oocyte expression system. Mature female Xenopus laevis were anaesthetized (20-40 min) using 0.15% 3-aminobenzoic acid ethyl ester (MS-222) and 2-4 ovarian lobes were surgically removed. Oocytes at developmental stages IV-VI (Dumont, J. N., J. Morphol. 136:153-180 (1972)), were dissected from the ovary still surrounded by enveloping ovarian tissues. Follicle-enclosed oocytes were micro-injected with 1:1 mixtures of cRNA:NR1A+NR2A, 2B, 2C or 2D; injecting ˜2, 5, or 20 ng of RNA encoding each receptor subunit. NR1A encoding cRNA was injected alone at ˜20 ng. Oocytes were stored in Barth's medium containing (in mM): NaCl, 88; KCl, 1; CaCl2, 0.41; Ca(NO3)2, 0.33; MgSO4, 0.82; NaHCO3, 2.4; HEPES 5; pH 7.4, with 0.1 mg/mL gentamycin sulphate. While oocytes were still surrounded by enveloping ovarian tissues the Barth's medium was supplemented with 0.1% bovine serum. Oocytes were defolliculated 1-2 days following injections by treatment with collagenase (0.5 mg/mL Sigma Type I for 0.5-1 hr) (Miledi and Woodward, J. Physiol. (Lond.) 416:601-621 (1989)) and subsequently stored in serum-free medium.
(§4) Electrical recordings were made using a conventional two-electrode voltage clamp (Dagan TEV-200) over periods ranging between 3-21 days following injection. Oocytes were placed in a 0.1 mL recording chamber continuously perfused (5-15 mL min^−1) with frog Ringer's solution containing (in mM): NaCl, 115; KCl, 2; CaCl2, 1.8; HEPES, 5; pH 7.4. Drugs were applied by bath perfusion. When using the more rapid flow rates, half-times for mid-chamber solution changes were between 2-3 sec, however, exchange rates for drug solutions at the oocyte surface (i.e. beneath the vitelline envelope and among the tangles of microvilli) were probably considerably longer (Woodward et al., Mol. Pharmacol. 41:89-103 (1992)). Zero-Ca^2+/Ba^2+ Ringer had the composition (in mM): NaCl, 115; KCl, 2; BaCl2, 1.8; HEPES, 5; pH 7.4. Intraoocyte injections were made by pneumatic pressure-pulse ejection from micropipettes (Miledi and Parker, J. Physiol. (Lond.) 357:173-183 (1984)). Injection solutions of EGTA (40-400 mM) and BAPTA (50-500 mM) were made up in H2O, pH adjusted to 7.4 with KOH or HCl, and filtered to minimize plugging (Acrodisc-13, […]). Pressure was set between 200-400 kPa. The volume of injections was regulated by adjusting the time of pulses (0.1-1 sec) and was estimated by measuring the diameters of ejected droplets.
(§5) Concentration-inhibition curves were fit with equation 2.
(§6) I/Icontrol=1/(1+([antagonist]/10^−pIC50)^n) Eq. 2
(§7) in which Icontrol is the current evoked by agonists alone, pIC50=−log IC50, […] is the concentration of antagonist that produces half maximal inhibition, and n is the slope factor. For incomplete curves analysis by fitting was unreliable and IC50 values were calculated by simple regression over linear portions of the curves (Origin: Microcal Software).
(§8) Drugs were initially dissolved at concentrations of 10-100 mM in DMSO. Dilutions were then made to generate a series of DMSO stock solutions over the range 10 μM to 100 mM. Working solutions were made by 1000-3000 fold dilution of stocks into Ringer. […]

NR1A/2C NMDA receptor = NR1A/2C NMDA receptor (Rattus norvegicus, UniProt P35439+Q00961); assay: Xenopus oocyte expression system, two-electrode voltage clamp, NR1A/2C; type: cell-based
NR1A/2C NMDA receptor, sequence (Q00961 20-1237, other chains not shown): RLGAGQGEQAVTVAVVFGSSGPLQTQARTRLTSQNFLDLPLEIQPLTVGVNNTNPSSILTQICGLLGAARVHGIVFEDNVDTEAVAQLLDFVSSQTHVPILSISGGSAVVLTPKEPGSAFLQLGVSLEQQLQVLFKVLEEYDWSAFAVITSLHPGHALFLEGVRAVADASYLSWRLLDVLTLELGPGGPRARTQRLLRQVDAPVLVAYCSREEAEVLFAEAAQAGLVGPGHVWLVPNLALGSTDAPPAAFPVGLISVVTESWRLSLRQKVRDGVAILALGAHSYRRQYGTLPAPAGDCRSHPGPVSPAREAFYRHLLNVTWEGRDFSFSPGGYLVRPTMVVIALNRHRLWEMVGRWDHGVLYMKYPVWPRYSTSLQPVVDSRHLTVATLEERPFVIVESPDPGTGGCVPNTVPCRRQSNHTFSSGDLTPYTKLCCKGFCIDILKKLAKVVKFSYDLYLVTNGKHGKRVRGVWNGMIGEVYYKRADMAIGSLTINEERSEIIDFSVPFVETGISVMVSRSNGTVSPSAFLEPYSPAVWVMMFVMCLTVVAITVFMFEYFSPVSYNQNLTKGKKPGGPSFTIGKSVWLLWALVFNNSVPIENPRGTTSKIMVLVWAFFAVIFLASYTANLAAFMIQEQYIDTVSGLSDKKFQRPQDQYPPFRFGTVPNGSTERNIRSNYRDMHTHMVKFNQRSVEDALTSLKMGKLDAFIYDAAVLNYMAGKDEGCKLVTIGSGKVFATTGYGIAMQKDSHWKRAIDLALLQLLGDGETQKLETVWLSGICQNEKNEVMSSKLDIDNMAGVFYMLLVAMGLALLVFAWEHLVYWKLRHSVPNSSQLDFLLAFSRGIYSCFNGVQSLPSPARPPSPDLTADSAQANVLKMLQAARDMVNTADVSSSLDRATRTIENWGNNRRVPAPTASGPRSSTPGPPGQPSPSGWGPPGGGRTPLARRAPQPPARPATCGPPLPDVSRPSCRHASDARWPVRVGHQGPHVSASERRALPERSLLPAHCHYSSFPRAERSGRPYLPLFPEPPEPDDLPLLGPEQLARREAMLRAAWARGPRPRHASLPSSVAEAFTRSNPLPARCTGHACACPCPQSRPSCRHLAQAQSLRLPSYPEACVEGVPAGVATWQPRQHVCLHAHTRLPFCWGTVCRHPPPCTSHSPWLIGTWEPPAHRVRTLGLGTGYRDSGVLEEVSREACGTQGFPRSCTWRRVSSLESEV
Text: as §1, §2, §3, §4, §5, §6, §7, §8

NR1A/2A NMDA receptor = NR1A/2A NMDA receptor (Rattus norvegicus, UniProt P35439+Q00959); assay: Xenopus oocyte expression system, two-electrode voltage clamp, NR1A/2A; type: cell-based
NR1A/2A NMDA receptor, sequence (Q00959 20-1464 limits assumed, other chains not shown): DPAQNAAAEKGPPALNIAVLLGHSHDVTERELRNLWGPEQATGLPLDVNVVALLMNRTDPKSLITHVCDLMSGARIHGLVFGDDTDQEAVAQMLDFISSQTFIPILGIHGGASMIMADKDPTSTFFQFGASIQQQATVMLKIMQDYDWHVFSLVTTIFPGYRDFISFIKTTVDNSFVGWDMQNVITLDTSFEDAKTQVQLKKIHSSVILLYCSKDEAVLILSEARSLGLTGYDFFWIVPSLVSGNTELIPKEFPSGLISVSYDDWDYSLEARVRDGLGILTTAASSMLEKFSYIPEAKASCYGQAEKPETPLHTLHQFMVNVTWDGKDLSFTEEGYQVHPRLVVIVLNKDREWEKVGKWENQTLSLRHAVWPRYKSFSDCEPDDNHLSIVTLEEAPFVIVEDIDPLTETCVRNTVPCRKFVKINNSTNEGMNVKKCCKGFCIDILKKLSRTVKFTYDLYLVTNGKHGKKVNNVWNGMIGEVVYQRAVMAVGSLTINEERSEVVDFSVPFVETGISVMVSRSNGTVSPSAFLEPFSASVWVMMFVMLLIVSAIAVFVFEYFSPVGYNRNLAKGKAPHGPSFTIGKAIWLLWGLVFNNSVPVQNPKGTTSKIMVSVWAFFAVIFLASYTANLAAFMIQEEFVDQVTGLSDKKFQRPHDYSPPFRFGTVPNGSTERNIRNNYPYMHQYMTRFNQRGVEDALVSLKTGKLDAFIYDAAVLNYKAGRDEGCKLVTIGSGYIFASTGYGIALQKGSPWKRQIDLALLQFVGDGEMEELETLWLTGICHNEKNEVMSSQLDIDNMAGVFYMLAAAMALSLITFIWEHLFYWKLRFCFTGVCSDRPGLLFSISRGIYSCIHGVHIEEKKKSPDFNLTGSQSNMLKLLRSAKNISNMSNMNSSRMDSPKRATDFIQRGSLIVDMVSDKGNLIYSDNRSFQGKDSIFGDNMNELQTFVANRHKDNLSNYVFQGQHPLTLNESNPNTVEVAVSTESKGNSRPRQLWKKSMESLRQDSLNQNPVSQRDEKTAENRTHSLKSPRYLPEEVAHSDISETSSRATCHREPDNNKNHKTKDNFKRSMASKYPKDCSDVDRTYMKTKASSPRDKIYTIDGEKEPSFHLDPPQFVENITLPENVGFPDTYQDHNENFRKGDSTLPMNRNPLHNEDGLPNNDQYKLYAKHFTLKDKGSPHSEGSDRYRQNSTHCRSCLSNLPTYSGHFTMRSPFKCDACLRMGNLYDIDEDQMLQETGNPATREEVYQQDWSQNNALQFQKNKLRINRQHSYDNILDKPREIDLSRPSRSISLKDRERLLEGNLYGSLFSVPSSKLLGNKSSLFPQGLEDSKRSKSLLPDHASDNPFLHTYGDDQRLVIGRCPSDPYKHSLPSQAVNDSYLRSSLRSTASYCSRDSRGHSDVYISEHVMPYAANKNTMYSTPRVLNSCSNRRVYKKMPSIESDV
Text: as §1, §2, §3, §4, §5, §6, §7, §8

[1] = cloned NR1A/2B subunits expressed in Xenopus oocytes, inhibition of agonist-evoked membrane current, read-out: 1A/2B IC50
[2] = cloned NR1A/2C subunits expressed in Xenopus oocytes, inhibition of agonist-evoked membrane current, read-out: 1A/2C IC50
[3] = cloned NR1A/2A subunits expressed in Xenopus oocytes, inhibition of agonist-evoked membrane current, read-out: 1A/2A IC50

NR1A/2B NMDA receptor, sequence (Q00960 27-1482, other chains not shown): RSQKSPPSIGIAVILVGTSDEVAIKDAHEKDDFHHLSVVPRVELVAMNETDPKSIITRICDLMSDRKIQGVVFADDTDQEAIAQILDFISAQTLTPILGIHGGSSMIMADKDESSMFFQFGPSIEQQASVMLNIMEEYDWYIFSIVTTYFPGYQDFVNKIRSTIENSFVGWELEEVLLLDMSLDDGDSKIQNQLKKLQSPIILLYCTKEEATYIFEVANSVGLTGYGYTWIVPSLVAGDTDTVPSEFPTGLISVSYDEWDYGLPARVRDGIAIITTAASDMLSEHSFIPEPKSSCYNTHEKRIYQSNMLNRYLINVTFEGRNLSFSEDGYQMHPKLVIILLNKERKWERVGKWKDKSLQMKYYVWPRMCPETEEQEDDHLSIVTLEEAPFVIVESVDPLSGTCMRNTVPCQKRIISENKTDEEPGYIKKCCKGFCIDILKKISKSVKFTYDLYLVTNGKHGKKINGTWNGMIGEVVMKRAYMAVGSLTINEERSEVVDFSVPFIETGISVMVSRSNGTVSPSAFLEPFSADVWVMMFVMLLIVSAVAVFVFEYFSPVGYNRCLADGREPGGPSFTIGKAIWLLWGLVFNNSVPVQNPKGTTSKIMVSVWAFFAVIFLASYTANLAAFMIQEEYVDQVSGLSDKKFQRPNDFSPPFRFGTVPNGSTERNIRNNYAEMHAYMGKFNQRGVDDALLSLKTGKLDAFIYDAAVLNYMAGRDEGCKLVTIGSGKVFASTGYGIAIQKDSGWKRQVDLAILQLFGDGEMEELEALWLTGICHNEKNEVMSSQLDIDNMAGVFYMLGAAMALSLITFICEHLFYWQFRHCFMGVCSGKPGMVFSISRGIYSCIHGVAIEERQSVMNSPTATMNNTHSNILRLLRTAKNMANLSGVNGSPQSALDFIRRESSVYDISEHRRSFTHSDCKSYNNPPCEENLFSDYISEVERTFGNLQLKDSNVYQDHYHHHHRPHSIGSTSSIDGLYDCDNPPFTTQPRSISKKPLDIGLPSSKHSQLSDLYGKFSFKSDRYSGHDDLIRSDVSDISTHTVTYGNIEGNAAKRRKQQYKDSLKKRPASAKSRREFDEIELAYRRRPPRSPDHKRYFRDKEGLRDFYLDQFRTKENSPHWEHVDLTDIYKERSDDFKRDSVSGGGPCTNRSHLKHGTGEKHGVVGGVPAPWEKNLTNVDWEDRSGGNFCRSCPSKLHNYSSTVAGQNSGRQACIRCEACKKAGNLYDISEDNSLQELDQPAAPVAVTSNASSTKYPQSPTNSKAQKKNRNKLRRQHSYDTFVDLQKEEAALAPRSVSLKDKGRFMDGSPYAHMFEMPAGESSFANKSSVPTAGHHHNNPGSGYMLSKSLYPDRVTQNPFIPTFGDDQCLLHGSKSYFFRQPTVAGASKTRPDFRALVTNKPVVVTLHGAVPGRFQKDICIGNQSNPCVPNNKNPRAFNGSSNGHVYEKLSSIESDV

IC50 (NR1A/2B NMDA receptor; [1])	IC50 (NR1A/2C NMDA receptor; [2])	IC50 (NR1A/2A NMDA receptor; [3])	melting point	Compound	IC50 (NR1A/2B NMDA receptor)	IC50 (NR1A/2C NMDA receptor)	IC50 (NR1A/2A NMDA receptor)
17 µM	> 300 µM	120 µM	–	CC(O)CCN1CCC(Cc2ccc(N)cc2)CC1 (stereo not shown) [Ex. 105, 4-(4-aminobenzyl)-1-(3-hydroxy-butyl) piperidine hydrochloride]	–	–	–
65 µM	> 300 µM	> 300 µM	–	Fc1cccc(C[P+](c2ccccc2)(c2ccccc2)c2ccccc2)c1 [Ex. 8, m-Fluorobenzyltriphenylphosphonium bromide]	–	–	–
–	–	–	139.5 to 140 °C	OCCCN1CCC(Cc2ccc(Cl)cc2)CC1 (as salt: hydrobromid) [Ex. 89, 4-(4-Chlorobenzyl)-1-(3-hydroxypropyl) piperidine hydrobromide]	–	–	–
–	–	–	74 to 78 °C	Br.COc1ccc(CCN2CCCC(Cc3ccccc3)C2)cc1 (stereo not shown)	–	–	–
12 µM	> 300 µM	> 300 µM	–	OCCCCN1CCC(Cc2ccccc2)CC1 [Ex. 86, 4-Benzyl-1-(4-hydroxybutyl)piperidine hydrobromide]	–	–	–
140 µM	> 300 µM	190 µM	–	O=c1[nH]c2ccc(OCCN3CCc4ccccc4C3)cc2[nH]1 [Ex. 109, N-(2-(2-oxobenzimidazol-5-oxy)ethyl)-1,2,3,4-tetrahydroisoquinoline]	–	–	–
40 µM	> 300 µM	270 µM	–	NCCCN1CCC(Cc2ccccc2)CC1 [Ex. 47, 4-Benzyl-1-(3-aminopropyl) piperidine]	–	–	–
50 µM	> 300 µM	> 300 µM	–	O=C(c1ccccc1)C1CCN(CCOc2ccccc2)CC1 [Ex. 27, 4-Benzoyl-1-(2-phenoxyethyl)piperidine]	–	–	–
14 µM	> 300 µM	240 µM	–	Fc1cccc(C=C2CCN(Cc3ccccc3)CC2)c1 [Ex. 9, 1-Benzyl-4-(m-fluorobenzylidene)piperidine]	–	–	–
8 µM	> 300 µM	> 300 µM	–	C[C@@H](CO)CN1CCC(Cc2ccc(F)cc2)CC1 [Ex. 92, (R)-4-(4-Fluorobenzyl)-1-(3-hydroxy-2-methylpropyl) piperidine hydrochloride]	–	–	–
8 µM	> 100 µM	95 µM	–	O=C(Nc1ccc([N+](=O)[O-])cc1)N1CCC(Cc2ccccc2)CC1 [Ex. 30, 1-[2-aza-1-oxo-2-(4-nitrophenyl)ethyl]-4-benzylpiperidine]	–	–	–
17 µM	80 µM	20 µM	–	OC1(Cc2ccccc2)CCN(CCCc2ccccc2)CC1 [Ex. 16, 4-Benzyl-4-hydroxy-1-(3-phenylpropyl)piperidine]	–	–	–
4 µM	> 300 µM	> 300 µM	–	NNC(=O)CCCCN1CCC(Cc2ccccc2)CC1 [Ex. 3, 4-Benzylpiperidylpentahydrazide]	–	–	–
7.5 µM	> 300 µM	24 µM	–	O=c1[nH]c2ccc(OCCCN3CCc4ccccc4C3)cc2[nH]1 [Ex. 108, N-(3-(2-oxobenzimidazol-5-oxy)propyl)-1,2,3,4-tetrahydroisoquinoline]	–	–	–

The remaining lines, values behind:

Compound	IC50 (NR1A/2B NMDA receptor; [1])	IC50 (NR1A/2C NMDA receptor; [2])	IC50 (NR1A/2A NMDA receptor; [3])	melting point	IC50 (NR1A/2B NMDA receptor)	IC50 (NR1A/2C NMDA receptor)	IC50 (NR1A/2A NMDA receptor)
OCCCN1CCC(Cc2ccc(F)cc2)CC1 [Ex. 90, 4-(4-Fluorobenzyl)-1-(3-hydroxypropyl) piperidine hydrobromide]	1.3 µM	> 300 µM	> 300 µM	–	–	–	–
C#CCCN1CCC(O)(c2ccc(Cl)cc2)CC1 [Ex. 7, 1-(3-Butynyl)-4-(p-chlorphenyl)-4-hydroxypiperidine]	65 µM	> 300 µM	> 300 µM	–	–	–	–
Br.FC(F)(F)c1cccc(CCN2CCCC(Cc3ccccc3)C2)c1 (stereo not shown)	–	–	–	152 to 154 °C	–	–	–
O=C(c1ccccc1)C1CCN(CCOc2ccccc2)CC1 (as salt: hydrochloride) [Ex. 27, 4-Benzoyl-1-(2-phenoxyethyl)piperidine]	–	–	–	161 to 162 °C	–	–	–
CCCCCCN1CCC(Cc2ccccc2)CC1 [(A), 4-benzyl-1-hexylpiperidine]	5 µM	> 300 µM	> 300 µM	–	–	–	–
c1ccc(OCCN2CCc3ccccc3C2)cc1 [Ex. 18, N-(2-Phenoxyethyl)-1,2,3,4-tetrahydroisoquinoline]	35 µM	> 100 µM	140 µM	–	–	–	–
CCOC(=O)CCCN1CCCC(Cc2ccccc2)C1 (stereo not shown) [Ex. 35, 4-(3-Benzylpiperidinyl)butyric acid ethyl ester]	150 µM	> 300 µM	> 300 µM	–	–	–	–
NC(=O)CCCCN1CCC(Cc2ccccc2)CC1 [Ex. 2, 4-Benzylpiperidylpentamide]	1.6 µM	> 300 µM	> 300 µM	–	–	–	–
O=C(CCCN1CCC(O)CC1)c1ccccc1 [Ex. 13, 4-(4-Hydroxypiperidinyl) butyrophenone]	53 µM	140 µM	80 µM	–	–	–	–
COC(=O)CCCCN1CCCC(Cc2ccccc2)C1 (stereo not shown) [Ex. 34, 5-(3-Benzylpiperidinyl)valeric acid methyl ester]	240 µM	> 300 µM	> 300 µM	–	–	–	–
OCC1CC2CC(Cc3ccccc3)CCN2C1 (stereo not shown) [Ex. 88, 7-Benzyl-1,2,3,5,6,7,8,9-octahydro-2-(hydroxymethyl)indolizine]	5 µM	> 300 µM	> 300 µM	–	–	–	–
1-(2-Phenylethyl)-4-benzylidenepiperidine [Ex. 15]	5.5 µM	230 µM	60 µM	–	–	–	–
CCOC(=O)CCCN1CCC(Cc2ccccc2)CC1 [Ex. 41, 4-(4-Benzylpiperidinyl) butyric acid ethyl ester hydrobromide salt]	> 300 µM	> 300 µM	> 300 µM	–	–	–	–
CCCCN1CCC(Cc2ccccc2)CC1 [(B), 4-benzyl-1-butylpiperidine]	25 µM	> 300 µM	> 300 µM	–	–	–	–
OCCCN1CCC(O)(Cc2ccccc2)CC1 [Ex. 87, 4-Benzyl-4-hydroxy-1-(3-hydroxypropyl)piperidine]	7 µM	> 300 µM	> 300 µM	–	–	–	–
c1ccc(OCCCN2CCc3ccccc3C2)cc1 [Ex. 19, N-(3-Phenoxypropyl)-1,2,3,4-tetrahydroisoquinoline]	10 µM	275 µM	75 µM	–	–	–	–
C=CCN1CCCCC1Cc1ccccc1 (stereo not shown) [Ex. 38(A), 1-Allyl-2-benzylpiperidine, hydrobromide]	–	–	–	–	72 µM	65 µM	25 µM
C=CC[N+]1(CC=C)CCCCC1Cc1ccccc1 (stereo not shown) [Ex. 38(B), 2-benzyl-l,1-diallylpiperidinium iodide]	50 µM	50 µM	28 µM	–	–	–	–
C#CCCN1CCC(Cc2ccccc2)CC1 [Ex. 6, 4-benzyl-1-(3-Butynyl)piperidine]	2.3 µM	> 300 µM	> 300 µM	–	–	–	–
O=C(c1cccc(F)c1)C1CCN(CCCCc2ccccc2)CC1 [(C), 4-(3′-fluorobenzoyl)-1-(4″-phenylbutyl)piperidine]	10 µM	> 300 µM	> 300 µM	–	–	–	–
